Source: patent US20080069809A1, “Compositions and methods for the diagnosis and treatment of cancer” (priority 2006, published 2008)

Experiments:
[1] = test system: K562; test: Differentiation (CD11b expression) in K562 cells; format: cell-based
Method: (§1) The myeloid leukemic cell lines HL60, NB60, NB4, U937, K562 and KG1a were all grown in RPMI 1640 medium (Life Technologies, Paisley, United Kingdom) supplemented with 10% v/v fetal calf serum (Sear Laboratories International Crawley, United Kingdom), 100 U/mL penicillin, and 100 μg/mL streptomycin (Sigma Aldrich, Poole, United Kingdom) at 37° C. and 5% v/v CO2. AML blasts were isolated from patient bone marrow aspirates and peripheral blood of eight patients at diagnosis or relapse. Patients were not receiving AML therapy at time of sampling. […] Blast purity ranged from 80% to 95%, as assessed by expression of CD34. […]
(§2) Cell differentiation was determined by staining of cells with anti-CD11b antibody as a general early marker of myeloid differentiation. In studies with HL60 cells, PEP005-treated and 20 nM phorbol myristate (PMA)-treated (Sigma Aldrich) cells were also assessed for their ability to phagocytose complement-coated yeast, a marker of a fully differentiated myeloid cell, as previously described (Toksoz et al, Leukemia Res 6:491-498, 1982). […] Images were captured with a SPOT2 cameria (Diagnostic Instructions, Sterling Heights, Mich.) and analyzed using Image-Pro 4.0 software (Media Cybernetics, Silver Spring, Md.).

[2] = test system: EGFP-positive KG1a cells transfected with control vector; test: Apoptosis in KG1a cells transfected with control vector pEGFP; format: cell-based; conditions: even at 20 μM PEP005, 3 days
Method: KG1a cells were transiently transfected with EGFP-tagged mouse PKC-δ subcloned into pEGFP-N1 plasmid (available from National Cancer Institute [NCI], Bethesda, Md.) using an Amaxa nucleofection apparatus (Amaxa, Koeln, Germany). Transfection efficiency was approximately 35% as judged by fluorescence-activated cell sorter (FACS) analysis and cells were treated with PEP005 (0.2 μM-20 μM) 24 hours after transfection. Cell viability in EGFP-positive cells was assessed by analysis of cell morphology (forward scatter and side scatter profile) by FACS and loss of viability confirmed in the total cell culture by MTT assay after 3 days. Briefly, 24 hours after transfection, 2×10^4 cells were plated in five wells in 96-well plates and exposed to […] PEP005. At 72 hours, 20 μL MTT substrate at 5 mg/mL was added and plates were incubated at 37° C. After 3 hours, 150 μL media was removed and replated with 200 μL dimethyl sulfoxide (DMSO). Absorbance at an optical density (OD) of 550 nm was read on a Biotech plate reader (Amersham Pharmacia) and corrected for absorbance obtained from blank media controls.

[3] = test system: Normal CD34+ myeloblasts; test: Apoptosis / cytotoxicity in normal CD34+ myeloblasts; format: cell-based, human
Method: as §1
(§3) To determine the effects of ingenol-3-angelate (PEP005), cells were incubated for up to 5 days with medium alone or PEP005 at a range of concentrations from 0.2 nM to 20 μM. […] Apoptosis and differentiation were assessed after 1 to 5 days.
Cell differentiation was determined by staining of cells with anti-CD11b antibody as a general early marker of myeloid differentiation. In studies with HL60 cells, PEP005-treated and 20 nM phorbol myristate (PMA)-treated (Sigma Aldrich) cells were also assessed for their ability to phagocytose complement-coated yeast, a marker of a fully differentiated myeloid cell, as previously described (Toksoz et al, Leukemia Res 6:491-498, 1982). […]

[4] = test system: U937; conditions: sub-G1 DNA by FACS, treated 5 days
Method: (§4) The myeloid leukemic cell lines HL60, NB60, NB4, U937, K562 and KG1a were all grown in RPMI 1640 medium (Life Technologies, Paisley, United Kingdom) supplemented with 10% v/v fetal calf serum (Sear Laboratories International Crawley, United Kingdom), 100 U/mL penicillin, and 100 μg/mL streptomycin (Sigma Aldrich, Poole, United Kingdom) at 37° C. and 5% v/v CO2. AML blasts were isolated from patient bone marrow aspirates and peripheral blood of eight patients at diagnosis or relapse. Patients were not receiving AML therapy at time of sampling. Blasts were isolated by Ficoll density centrifugation and were cultured in serum-free insulin transferrin selenium-positive (ITS+) medium (Life Technologies) containing 300 ng/mL stem cell factor (SCF) and 10 ng/mL interleukin 3 (IL3; R and D Systems, Abingdon, United Kingdom) and antibiotics. […] Normal myeloblasts were isolated from cord blood or adult mobilized peripheral blood. Briefly, CD34^+ cells were indirectly selected from the mononuclear cell preparations using antibody-coated magnetic beads (Miltenyi Biotec, United Kingdom).
as §3

[5] = test system: K562; conditions: less sensitive, treated 5 days
Method: as §4, §3

[6] = test system: U937; test: Differentiation (CD11b expression) in U937 cells; format: cell-based
Method: The myeloid leukemic cell lines HL60, NB60, NB4, U937, K562 and KG1a were all grown in RPMI 1640 medium (Life Technologies, Paisley, United Kingdom) supplemented with 10% v/v fetal calf serum (Sear Laboratories International Crawley, United Kingdom), 100 U/mL penicillin, and 100 μg/mL streptomycin (Sigma Aldrich, Poole, United Kingdom) at 37° C. and 5% v/v CO2. AML blasts were isolated from patient bone marrow aspirates and peripheral blood of eight patients at diagnosis or relapse. Patients were not receiving AML therapy at time of sampling. Blasts were isolated by Ficoll density centrifugation and were cultured in serum-free insulin transferrin selenium-positive (ITS+) medium (Life Technologies) containing 300 ng/mL stem cell factor (SCF) and 10 ng/mL interleukin 3 (IL3; R and D Systems, Abingdon, United Kingdom) and antibiotics. Blast purity ranged from 80% to 95%, as assessed by expression of CD34. Normal myeloblasts were isolated from cord blood or adult mobilized peripheral blood. Briefly, CD34^+ cells were indirectly selected from the mononuclear cell preparations using antibody-coated magnetic beads (Miltenyi Biotec, United Kingdom).
as §2, with “1982). The ingestion of three or more yeasts was taken as a positive result. In normal cord blood or adult bone marrow myeloblasts, loss of CD34 was taken as a marker of differentiation. Isotype-matched controls were used and all antibodies were from DAKO (Cambridge, United Kingdom).” for “1982).”

[7] = test system: protein kinase C (PKC); conditions: Kedei et al 2004; cited from earlier work
[8] = test system: KG1a; test: Apoptosis (sub-G1 DNA by FACS) in KG1a leukemic cells; format: cell-based; conditions: even at 20 μM PEP005
Method: as §4, §3

[9] = test system: Normal CD34+ myeloblasts; test: Differentiation of normal CD34+ myeloblasts (loss of CD34, morphology); format: cell-based, human; conditions: doses of 20 nM to 2.0 μM PEP005
Method: as §1, §2

In the case of C/C=C(/C)C(=O)O[C@H]1C(C)=C[C@]23C(=O)[C@@H](C=C(CO)[C@@H](O)[C@]12O)[C@H]1[C@@H](C[C@H]3C)C1(C)C [PEP005, ingenol-3-angelate], the CD11b expression [1] is reported as “did not increase expression of CD11b”, the “apoptosis (forward and side scatter by FACS)” value [2] is reported as “resistant to PEP005-induced apoptosis” and the induction of apoptosis ([3]; concentrations of PEP005 effective against cell lines and AML blast cells, cord blood and adult marrow myeloblasts) is reported as “Induction of apoptosis was not seen”. The cytotoxicity ([3]; even at 200 nM PEP005) was “cytotoxicity did not occur”, the “PEP005 concentration with optimal effect, apoptosis” value [4] was 20 nM and the “PEP005 concentration with maximal response, apoptosis” value [5] was 2 µM. The “predominant response (kinetic study)” value [6] was “expressed CD11b as the predominant response before entering apoptosis”, the “synergy with ATRA in CD11b differentiation response” value ([6]; 10 nM ATRA and 20 nM PEP005 in combination, 5 days) was “able to synergize with ATRA” and the “PEP005 concentration with optimal effect, CD11b expression” value ([6]; treated 5 days) was 20 nM. For the same molecule, the “activation of protein kinase C” value [7] was “potent activator”, the entry into apoptosis [8] was “did not enter apoptosis” and the “differentiation (loss of CD34, promyelocyte- and myelocyte-like morphologies)” value [9] was “induced to differentiate”.
